Laboratory results from patent US6143722A, “Heptapeptide oxytocin analogues” (Ferring, B.V., priority 1996, dated 2000).
Like-named read-outs stand apart in the source and are kept apart here. *1 amine or outer side, *2 acyl side, *3 side chain or, on linkers, in order; H or OH if unused. Where a SMILES comes first, the peptide text is derived from it. Bridges are numbered along the chain shown (N, C = ends). [ ]: non-standard residue; d: D form. ξ: configuration not given here. d2Nal = N[C@H](Cc1ccc2ccccc2c1)C(=O)O; aIle = CC[C@@H](C)[C@H](N)C(=O)O; hCys = N[C@@H](CCS)C(=O)O; ξNMeOrn = CNC(CCCN)C(=O)O; X1 = O=C(CC[*:2])[*:1]

How the values were obtained:
[1] = target: T1, Recombinant human oxytocin receptors (Homo sapiens, UniProt P30559); assay: Oxytocin receptor binding assay ([125I]-oxytocin, membrane fraction); conditions: recombinant human oxytocin receptors expressed in CHO or HEK293 cells, mean ± SEM
T1 construct: expressed in transfected cells; host or cells: CHO or HEK293 cells (membrane fraction)
T1 sequence (P30559 1-389): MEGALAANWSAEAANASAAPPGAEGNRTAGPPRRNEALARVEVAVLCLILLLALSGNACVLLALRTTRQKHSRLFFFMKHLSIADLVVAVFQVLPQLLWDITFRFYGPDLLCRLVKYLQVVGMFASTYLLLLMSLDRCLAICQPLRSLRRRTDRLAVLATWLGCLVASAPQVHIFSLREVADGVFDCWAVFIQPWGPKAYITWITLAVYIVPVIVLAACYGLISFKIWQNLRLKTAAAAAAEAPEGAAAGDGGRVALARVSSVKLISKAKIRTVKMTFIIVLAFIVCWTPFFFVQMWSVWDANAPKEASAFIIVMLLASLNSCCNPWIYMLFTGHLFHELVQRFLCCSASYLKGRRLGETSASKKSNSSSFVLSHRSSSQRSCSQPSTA
Procedure: i) Oxytocin receptor binding assay
Recombinant human oxytocin receptors were expressed in either CHO or HEK293 cells using standard molecular biological techniques. A membrane fraction was prepared and incubated in the presence of [^125 I]-oxytocin and varying concentrations of heptapeptide analogue. Membranes were then isolated by filtration and counted for radioactivity to determine oxytocin binding. An inhibition constant Ki was determined for the analogue.

[2] = Evaluation of stability in aqueous solution (HPLC); conditions: Isotonic citrate/phosphate buffer, pH 4.5; stored at 50° C.; loss of peptide by HPLC
Procedure: (§1) Solutions of the heptapeptide analogues of the present invention were prepared with compositions representative of aqueous formulations. The solutions were stored for several weeks at 50° C. and aliquots were withdrawn periodically for analysis by HPLC. Reference peptides were studied in parallel. Degradation was determined as the loss of peptide (% by weight per week), independent of the nature of the decomposition products.

[3] = pH 4.5
Procedure: as §1

[4] = test system: Uterus muscle tissue from women in late pregnancy; assay: Antagonist effect in vitro in a human uterus model (oxytocin-induced contraction of uterus muscle strips); format: cell-based; conditions: concentration of antagonist reducing the oxytocin response to 50% of control; isolated human uterus strips
Procedure: ii) Antagonist effect in vitro in a human uterus model
Uterus muscle tissue from women in late pregnancy undergoing Caesarean section was cut into strips which were mounted in a tissue bath filled with Krebs-Ringer buffer and oxygenated with carbogen (95% O2 +5% CO2) gas. Changes in isometric muscle tension detected with a tension transducer were recorded on a Grass polygraph.
The concentration-effect curve of oxytocin was recorded. The effect measured in this case corresponds to the net value of the integrated contraction curve during the 10 minute period following agonist (i.e. oxytocin) administration. A concentration of oxytocin giving at least half-maximal response was selected. This concentration of agonist was administered to the tissue in the presence of different concentrations of antagonist heptapeptide analogue and the response was recorded. The concentration of antagonist required to reduce the response to 50% of its control value was determined by regression analysis and is given here as an IC50 value. [IC50 value=concentration of antagonist required to reduce the effect of a given agonist dose by 50%].

[5] = test system: myometrium; format: in vivo, Sprague Dawley rats; conditions: for ID50, rat model: in vivo
Procedure: Sprague Dawley rats (ca. 250 g) in natural estrus were anaesthetised with Inactin (0.5 mg/100 g body weight, i.p.). The activity of the myometrium was measured with the aid of a catheter fixed in the uterine cavity and filled with modified Lockes solution. The catheter was connected to a Statham P23D force transducer and the contractions were recorded on a Grass polygraph (model 7D).
The dose-response curve for oxytocin (2×10^-4 -5×10^-3 μmol/kg) was recorded. In this case the response was quantified by integration of the curve during the 15 minutes following agonist injection. A dose of oxytocin giving an effect corresponding to an intralumenar contraction pressure of 10-30 mm Hg and within the linear section of the curve was selected. This dose of oxytocin was administered to the animal in conjunction with at least two different doses of antagonist and the effect was recorded. The dose of antagonist which reduces the effect of the agonist to 50% of tis control value was determined by interpolation and is given here as an ID50 value. [ID50 value=dose of antagonist required to reduce the effect of a given agonist dose by 50%].
The duration of action of the antagonists was also determined in this model. An oxytocin dose was selected (2×10^-4 -5×10^-3μmol/kg) giving an effect corresponding to half the maximum effect (this dose is the ED50). The effect determined here is the same as for the ID50 determination defined above. An antagonist dose was selected (8×10^-4 -4×10^-3 μmol/kg) so as to give at least 50% inhibition of the response to the agonist. At the beginning of the experiment, single doses of the agonist and antagonist were co-administered. At 20 minute intervals thereafter, doses of the agonist alone were administered and the response was measured. […] [t75 value=time period required for the effectiveness of a single dose to decline by 75%].

Ki [1] [nM] | Degradation at 50° C. (wt %/week) [2] [wt %/week] | Degradation at 50° C. (wt %/week) [3] [wt %/week] | SMILES | further results
2.4 ± 0.85 | – | – | CCC(CC)[C@@H]1NC(=O)[C@H]([C@@H](C)CC)NC(=O)[C@@H](Cc2c[nH]c3ccccc23)NC(=O)CCSCC[C@@H](C(=O)N(C)[C@H](CO)CCCN)NC(=O)[C@H](CC(N)=O)NC1=O [VII] | –
7 ± 1.85 | – | – | CC[C@H](C)[C@@H]1NC(=O)[C@@H](Cc2c[nH]c3ccccc23)NC(=O)CCSCC[C@@H](C(=O)N(C)[C@H](CO)CCCN)NC(=O)[C@H](CC(N)=O)NC(=O)[C@H](CC2CCCCC2)NC1=O [IV] | –
– | 4.3 | – | CC[C@H](C)[C@@H]1NC(=O)[C@@H](Cc2c[nH]c3ccccc23)NC(=O)CCSCC[C@@H](C(=O)N(C)C(CCCN)C(N)=O)NC(=O)[C@H](CC(N)=O)NC(=O)[C@H](C(C)C)NC1=O (some centres unmarked) [r-X] ([dW]IVN[hCys][ξNMeOrn]-NH2; linker N-5 via X1) | –
0.1 | – | 1.2 | CC[C@@H](C)[C@@H]1NC(=O)[C@H]([C@@H](C)CC)NC(=O)[C@@H](Cc2ccc3ccccc3c2)NC(=O)CCSCC[C@@H](C(=O)N(C)[C@H](CO)CCCN)NC(=O)[C@H](CC(N)=O)NC1=O [VI] | –
0.25 ± 0.16 | – | 0.4 | CC[C@@H](C)[C@@H]1NC(=O)[C@H]([C@@H](C)CC)NC(=O)[C@@H](Cc2c[nH]c3ccccc23)NC(=O)CCSCC[C@@H](C(=O)N(C)[C@H](CO)CCCN)NC(=O)[C@H](CC(N)=O)NC1=O [Peptide I] | IC50 [4]: 5 ± 1 nM; t75, rat model ([5]; duration of action: time for the effectiveness of a single dose to decline by 75%, antagonist dose 8×10^-4 -4×10^-3 μmol/kg): 169 ± 2 min; ID50, rat model [5]: 2.9 ± 0.3 nmol/kg
– | 2.9 | – | CC[C@@H](C)[C@@H]1NC(=O)[C@H]([C@@H](C)CC)NC(=O)[C@@H](Cc2c[nH]c3ccccc23)NC(=O)CCSCC[C@@H](C(=O)N(C)C(CCCN)C(N)=O)NC(=O)[C@H](CC(N)=O)NC1=O (some centres unmarked) [r-IX, reference compound] ([dW]I[aIle]N[hCys][ξNMeOrn]-NH2; linker N-5 via X1) | ID50, rat model [5]: 2.9 ± 0.3 nmol/kg
– | 4.0 | – | CC[C@@H](C)[C@@H]1NC(=O)[C@H]([C@@H](C)CC)NC(=O)[C@@H](Cc2ccc3ccccc3c2)NC(=O)CCSCC[C@@H](C(=O)N(C)C(CCCN)C(N)=O)NC(=O)[C@H](CC(N)=O)NC1=O (some centres unmarked) [r-XI] ([d2Nal]I[aIle]N[hCys][ξNMeOrn]-NH2; linker N-5 via X1) | –
3.2 ± 0.75 | – | – | CC[C@H](C)[C@@H]1NC(=O)[C@@H](Cc2c[nH]c3ccccc23)NC(=O)CCSCC[C@@H](C(=O)N(C)[C@H](CO)CCCN)NC(=O)[C@H](CC(N)=O)NC(=O)[C@H](CC(C)C)NC1=O [II] | –
1.4 ± 0.15 | – | – | CC[C@H](C)[C@@H]1NC(=O)[C@H]([C@@H](C)CC)NC(=O)[C@@H](Cc2c[nH]c3ccccc23)NC(=O)CCSCC[C@@H](C(=O)N(C)[C@H](CO)CCCN)NC(=O)[C@H](CC(N)=O)NC1=O [V] | –
0.8 ± 0.3 | – | 0.7 | CC[C@H](C)[C@@H]1NC(=O)[C@@H](Cc2c[nH]c3ccccc23)NC(=O)CCSCC[C@@H](C(=O)N(C)[C@H](CO)CCCN)NC(=O)[C@H](CC(N)=O)NC(=O)[C@H](C(C)C)NC1=O [III] | –
